The results in this text go back to BindingDB's records for doi:10.1021/acs.jnatprod.5b00508 (Korea University, 2015).

Where only a bound is given, the exact number is not on record here.

Assay [1] in a line: Inhibition of amyloid beta (25 to 35 residues) (unknown origin) aggregate-induced toxicity in rat PC12 cells preincubated for 1 hr followed by amyloid beta challenge measured after 24 hrs by MTT assay. For orientation: Formazan colour is commonly taken as a measure of viable cells.
A short description of assay [2]: Inhibition of amyloid beta (1 to 42 residues) (unknown origin) aggregate-induced toxicity in rat PC12 cells assessed as cell viability at 4 to 100 ug/ml pre-incubated for 24 hrs with Abeta ( 1 to 42) followed by compound-Abeta (1 to 42) mixture addition to cells and measured after 24 hrs by MTT assay.

Consider `CC1(C)C=Cc2cc(C(=O)O)ccc2O1`, for which, in assay [1], the EC50 – broadly, the concentration that produces a half-maximal response – amounted to 252 µM. For the compound `CC1=CC[C@@H]2[C@@]3(C)[C@@H](O)CC(=O)OC(C)(C)[C@@H]3CC[C@@]2(C)[C@]12Cc1c(c(C)c(C)oc1=O)O2`, the EC50 in assay [1] is over 300 µM. For the compound `C[C@@H]1C[C@@]23C[C@H]4C(C)(C)[C@@]5(C[C@]4(CN2C1=O)NC3=O)C(=O)Nc1c5ccc2c1C=CC(C)(C)O2`, the EC50 in assay [2] was 97.9 µM; in assay [1], over 300 µM.

In assay [1], `C[C@@H]1C[C@@]23C[C@H]4C(C)(C)[C@@]5(C[C@]4(CN2C1=O)N(C)C3=O)C(=O)Nc1c5ccc2c1C=CC(C)(C)O2` gave an EC50 of over 300 µM. Regarding `O=C(/C=C/c1ccc(O)c(O)c1)O[C@H](Cc1ccc(O)c(O)c1)C(=O)O` [Rosmarinic acid, 2], the results for the EC50 in assay [2] and in assay [1] were 57.2 µM and 68.1 µM, respectively. With `CN1C(=O)[C@@]23CCC(=O)N2C[C@@]12C[C@@]1(C(=O)Nc4c1ccc1c4C=CC(C)(C)O1)C(C)(C)[C@@H]2C3`, the EC50 in assay [2] stood at 89.9 µM; in assay [1] it was 150 µM. On the same counts, the results for `C[C@H]1CN2C[C@]34C[C@@]5(C(=O)Nc6c5ccc5c6OC=CC(C)(C)O5)C(C)(C)[C@@H]3C[C@@]2(C1)C(=O)N4C` are 105 µM and over 300 µM.

In the case of `CC(=O)O[C@H]1CC(=O)OC(C)(C)[C@@H]2CC[C@]3(C)[C@H](CC=C(C)[C@@]34C[C@]3(OC(C)=C(C)C3=O)C(=O)O4)[C@@]12C`, it took 113 µM to reach a half-maximal effect in assay [1] (EC50). `CC1=CC[C@@H]2[C@@]3(C)C=CC(=O)OC(C)(C)[C@@H]3CC[C@@]2(C)[C@]12Cc1c(c(C)c(C)oc1=O)O2` showed an EC50 in assay [1] of 65.4 µM. Same read-out and setting: in the case of `C[C@@H]1C[C@@]23C[C@H]4C(C)(C)[C@@]5(C[C@]4(CN2C1=O)NC3=O)C(=O)Nc1c5ccc2c1OC=CC(C)(C)O2` it was over 300 µM; in that of `C[C@H]1CN2C[C@]34C[C@@]5(C(=O)Nc6c5ccc5c6C=CC(C)(C)O5)C(C)(C)[C@@H]3C[C@@]2(C1)C(=O)N4C`, over 300 µM.
